Experiment: Thermal degradation of prednicarbate during preparation of the emulsion
Format: physicochemical
Settings: in the emulsion during preparation
Experimental: In a particularly key aspect of the present inventive process, the emulsion is cooled from a temperature of about 55 to about 85° C. to a temperature of about 25 to about 45° C. before the prednicarbate is dispersed therein. This cooling step is particularly important because a substantial amount of prednicarbate degradation products will form at temperatures above 63° C. Accordingly, it is necessary to cool the emulsion before adding the prednicarbate to maintain the high prednicarbate purity and low amount of prednicarbate degradation products essential to the present inventive compositions.

- temperatures at which a substantial amount of prednicarbate degradation products will form: above 63 °C
Compound: CCOC(=O)O[C@]1(C(=O)COC(=O)CC)CC[C@H]2[C@@H]3CCC4=CC(=O)C=C[C@]4(C)[C@H]3[C@@H](O)C[C@@]21C [prednicarbate]

Reference: US20060229258A1, “Steroidal compositions containing hydroxycarboxylic acids and methods of using the same” (priority 2003, published 2006)
